Test results published in patent US8759537B2, “3H-imidazo [4, 5-C] pyridine-6-carboxamides as anti-inflammatory agents” (Boehringer Ingelheim International GmbH, priority 2010, dated 2014).
pIC50: −log10 of the molar value.

Experiments:
mPGES-1 [1] = molecular target: T1, mPGES-1 (Homo sapiens (Human), UniProt O14684); experiment: A549 cell-based assay (PGE2 formation, IL-1β stimulated, 50% human serum); details: A549 cells
Method in brief: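 Human A549 cells (7000 cells/well) in F-12 medium with 50% human serum, with IL-1β stimulation. IC50 from 6-8 point titrations.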

mPGES-1 [2] = molecular target: T1, mPGES-1; experiment: mPGES-1 enzyme assay (HTRF detection of PGE2); assay type: biochemical
Procedure: Microsomes from Rosetta E. coli bacteria expressing recombinant human mPGES-1 can be derived as described below:
Inoculate 5 ml LB with Ampicilin (50 μg/ml) and Chloramphenicol (34 μg/ml) with bacteria from freeze culture. Incubate 8 h at 37° C. with 200 rpm. Thereafter, inoculate 500-1000 ml LB containing Amp and Chloro with the 5 ml on culture and grow to OD640 of 0.8-1.0. Chill the culture to +4° C. before induction. Induce the culture with IPTG at a final concentration of 400 μM. Express the protein at room temp 18-23° C. with 200 rpm shaking over night.
The following steps can be performed on the following day: • 1. Spin down the cells in 250 ml centrifuge flasks for 15 min at 7000 rpm (Beckmann Coulte Avanti J-E centrifuge) • 2. Dissolve the pellet from 250 ml culture in 12.5 ml homogenization buffer • 3. (15 mM Tris-HCL pH8, 1 mM EDTA pH8, […], 2.5 mM GSH, 1 Tablet Protease inhibitor per 50 ml buffer) • 4. […] Add 2.5 ml MgCl2 (100 mM) and DNase 12.5 μl (0.8 mg/ml) and incubate on ice for 30 min • 6. Spin down the bacteria debris and save the supernatant, 7000 rpm for 15 min • 7. Isolate the protein containing membranes in the supernatant by ultracentrifugation 120000×g for 2 hour at 4° C. (Sorvall T880 rotor). • 8. Discard the supernatant and dissolve the pellet in 20 mM Potassium phosphate buffer pH7.4 (KH2PO4 and K2HPO4) buffer by sonication (5×10 s, 30% of a 50 W sonifier) and aliquot the enzyme and store aliquots at −80° C.
Before each experiment is performed an aliquot of the enzyme is thawed and it can then be dissolved in 0.1 M Potassium phosphate buffer pH7.4 (KH2PO4 and K2HPO4) buffer containing 2.5 mM GSH.
The aim of this assay is to determine the affinity of a test compound for the mPGES-1 enzyme.
47 μl of recombinant human mPGES-1 (˜0.5 μg protein/well) containing microsomal suspension in a buffer containing GSH, (2.5 mmol/L L-Glutathione reduced, dissolved in 0.1 mol/L Phosphat Buffer pH 7.4) is dispensed in a 384-well plate and thereafter 1 μl of the test compound(s) is/are added and incubated for 25 minutes at room temperature. The enzyme reaction is started by the addition of 2 ul PGH2 (final conc. 2 μM) dissolved in water-free Diglyme. After 60 seconds the reaction is terminated by addition of a stop solution containing FeCl2 (10 μL 0.074 mol/l FeCl2). The samples are diluted between 1:25 in PBS (Phosphate Buffered Saline). 10 μl of the diluted samples are transferred to 384-well low volume plate. In order to quantify the amount of PGE2 that has been formed, a homogenous time resolved fluorescent (HTRF) detecting of PGE2 has been performed using a commercially available kit from Cisbio according to the manufactures recommendation. […] Briefly, the diluted samples are mixed with 5 μl PGE2-d2 conjungate and 5 μl anti-PGE2 cryptate conjungate. After an incubation period of the plates over night, the fluorescence is measured by the use of an appropriate microplate reader.
The quantification plate contains also wells with different concentrations of PGE2 as calibration curve for the calculation of the PGE2 concentrations from the HTRF ratio values.
From all mPGES enzyme assay the background is subtracted and the IC50 is calculated over a nonlinear regression with conventional software.

[3] = IL-1β 5 ng/ml, read-out: mPGES-1 inhibitory effect in the cell assay, IC50
[4] = recombinant human mPGES-1 microsomes, PGH2 2 μM, read-out: mPGES-1 inhibitory effect in the enzyme assay, IC50
[5] = Table C comparison of selected benzimidazoles, read-out: Cell IC50
[6] = Table C comparison of selected benzimidazoles, read-out: Enzym IC50

T1 sequence (O14684 whole entry): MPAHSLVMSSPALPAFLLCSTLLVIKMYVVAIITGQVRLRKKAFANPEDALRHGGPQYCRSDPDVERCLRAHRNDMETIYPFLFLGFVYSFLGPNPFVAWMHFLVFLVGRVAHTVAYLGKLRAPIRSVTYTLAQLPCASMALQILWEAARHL

Structure (SMILES) | pIC50 (mPGES-1 [1]; [3]) | pIC50 (mPGES-1 [2]; [4]) | pIC50 (mPGES-1 [1]; [5]) | pIC50 (mPGES-1 [2]; [6])
Cn1c(Nc2c(Cl)ccc(CNC(=O)C(C)(C)C)c2Cl)nc2cc(C(=O)N[C@H]3CC[C@H](C(F)(F)F)CC3)c(OCC(F)F)cc21 [Example 1, N-(trans-4-Trifluoromethyl-cyclohex-1-yl)-2-{2,6-dichloro-3-[(2,2-dimethyl-propionylamino)-methyl]-phenylamino}-6-(2,2-difluoro-ethoxy)-1-methyl-1H-benzimidazole-5-carboxylic acid amide] | > 9.00 | 8.70 | – | –
Cn1c(Nc2c(Cl)ccc(CNC(=O)C(C)(C)C)c2Cl)nc2cc(C(=O)Nc3nc4ccc(Cl)cc4s3)c(OCC(F)F)cc21 [Example 34] | 9.00 | 8.40 | – | –
CC(C)(C)C(=O)NCc1ccc(Cl)c(Nc2nc3cc(C(=O)N[C@H]4CC[C@H](C(F)(F)F)CC4)c(F)c(F)c3[nH]2)c1Cl [Example 180] | 7.03 | 8.70 | – | –
Cn1c(Nc2c(Cl)ccc(CNC(=O)C(C)(C)C)c2F)nc2cc(C(=O)NCC(F)(F)F)c(OCC(F)F)cc21 [Example 77] | 7.92 | 8.70 | – | –
Cc1ccc(Cl)cc1NC(=O)c1cc2nc(Nc3c(Cl)ccc(CNC(=O)C(C)(C)C)c3Cl)n(C)c2cc1OCC(F)F [Example 54] | > 9.00 | 8.52 | – | –
Cn1c(Nc2c(F)ccc(CNC(=O)C(C)(C)C)c2F)nc2cc(C(=O)Nc3cccc(F)c3)c(OCC(F)F)cc21 [Example 72] | 8.05 | 9.00 | – | –
Cn1c(Nc2c(Cl)ccc(CNC(=O)C(C)(C)C)c2F)nc2cc(C(=O)N[C@H]3CC[C@H](C(F)(F)F)CC3)c(OCC(F)F)cc21 [Example 76] | 8.70 | 8.52 | – | –
Cc1ccc(CNC(=O)C(C)(C)C)c(C)c1Nc1nc2cc(C(=O)Nc3ccc(F)c(Cl)c3)c(OCC(F)F)cc2n1C [Example 71] | 7.80 | 8.70 | – | –
Cn1c(Nc2c(Cl)ccc(CNC(=O)C(C)(C)C)c2F)nc2cc(C(=O)Nc3ccc(F)c(Cl)c3)c(OCC(F)F)cc21 [Example 75, N-(3-Chloro-4-fluoro-phenyl)-2-{6-chloro-2-fluoro-3-[(2,2-dimethyl-propionylamino)-methyl]-phenylamino}-6-(2,2-difluoroethoxy)-1-methyl-1H-benzimidazole-5-carboxylic acid amide] | > 9.00 | 8.70 | – | –
COCC1(CNC(=O)c2cc3nc(Nc4c(Cl)ccc(CNC(=O)C(C)(C)C)c4Cl)n(C)c3cc2OCC(F)F)CCCC1 [Example 49] | 9.00 | 8.40 | – | –
Cn1c(Nc2c(Cl)ccc(CNC(=O)C(C)(C)C)c2Cl)nc2cc(C(=O)NCC(F)F)c(OCC(F)F)cc21 [Example 43] | 8.40 | 8.40 | – | –
CC(C)(C)C(=O)NCc1ccc(Cl)c(Nc2nc3cc(C(=O)N[C@H]4CC[C@H](C(F)(F)F)CC4)c(F)cc3[nH]2)c1Cl [Example 12, N-(trans-4-Trifluoromethyl-cyclohex-1-yl)-2-{2,6-dichloro-3-[(2,2-dimethyl-propionylamino)-methyl]-phenylamino}-6-fluoro-1H-benzimidazole-5-carboxylic acid amide] | 8.15 | 8.40 | – | –
Cn1c(Nc2c(Cl)ccc(CNC(=O)C(C)(C)C)c2Cl)nc2cc(C(=O)NCC3CC3)c(OCC(F)F)cc21 [drawing 48] | – | – | 9.00 | 8.40
CCNC(=O)c1cc2nc(Nc3c(Cl)ccc(CNC(=O)C(C)(C)C)c3Cl)n(C)c2cc1OCC(F)F [Example 56] | 8.52 | 8.40 | – | –
COCCOc1cc2c(cc1C(=O)Nc1ccc(F)c(Cl)c1)nc(Nc1c(Cl)ccc(CNC(=O)C(C)(C)C)c1Cl)n2C [Example 178] | > 9.00 | 9.00 | – | –
Cn1c(Nc2c(Cl)ccc(CNC(=O)C(C)(C)C)c2F)nc2cc(C(=O)Nc3ccc(Br)cc3)c(OCC(F)F)cc21 [Example 8] | > 9.00 | 8.52 | – | –
Cn1c(Nc2c(F)ccc(CNC(=O)C(C)(C)C)c2F)nc2cc(C(=O)Nc3cc(F)cc(Cl)c3)c(OCC(F)F)cc21 [Example 69] | 8.52 | 8.70 | – | –
CC1CCCN1C(=O)NCc1ccc(Cl)c(Nc2nc3cc(C(=O)N[C@H]4CC[C@H](C(F)(F)F)CC4)c(OCC(F)F)cc3n2C)c1Cl (stereo partly drawn) [Example 82] | 7.37 | 9.00 | – | –
Cn1c(Nc2c(Cl)ccc(CNC(=O)C(C)(C)C)c2Cl)nc2cc(C(=O)N[C@H]3CC[C@H](C(F)F)CC3)c(OCC(F)F)cc21 [Example 68] | 9.00 | 8.70 | – | –
Cn1c(Nc2c(Cl)ccc(CNC(=O)C(C)(C)C)c2Cl)nc2cc(C(=O)Nc3cccc(F)c3)c(OCC(F)F)cc21 [Example 31] | 9.00 | 8.52 | – | –
Cc1ccc(CNC(=O)C(C)(C)C)c(C)c1Nc1nc2cc(C(=O)N[C@H]3CC[C@H](C(F)(F)F)CC3)c(OCC(F)F)cc2n1C [Example 14, N-(trans-4-Trifluoromethyl-cyclohex-1-yl)-2-{2,6-dimethyl-3-[(2,2-dimethyl-propionylamino)-methyl]-phenylamino}-6-(2,2-difluoroethoxy)-1-methyl-1H-benzimidazole-5-carboxylic acid amide] | 8.30 | 9.00 | – | –
Cn1c(Nc2c(Cl)ccc(CNC(=O)C(C)(C)C)c2Cl)nc2cc(C(=O)Nc3ccc(Cl)cc3Cl)c(OCC(F)F)cc21 [Example 60, N-(2,4-dichloro-phenyl)-2-{2,6-dichloro-3-[(2,2-dimethyl-propionylamino)-methyl]-phenylamino}-6-(2,2-difluoro-ethoxy)-1-methyl-1H-benzimidazole-5-carboxylic acid amide] | > 9.00 | 8.52 | – | –
CC(NC(=O)c1cc2nc(Nc3c(Cl)ccc(CNC(=O)C(C)(C)C)c3Cl)n(C)c2cc1OCC(F)F)C(F)(F)F (stereo not drawn) [Example 39] | > 9.00 | 8.40 | – | –
Cn1c(Nc2c(Cl)ccc(CNC(=O)C(C)(C)C)c2Cl)nc2cc(C(=O)Nc3ccc(Cl)c(F)c3)c(OCC(F)F)cc21 [Example 45] | > 9.00 | 8.40 | – | –
Cn1c(Nc2c(Cl)ccc(CNC(=O)C(C)(C)C)c2Cl)nc2cc(C(=O)NCCc3ccccc3)c(OCC(F)F)cc21 [Example 57] | > 9.00 | 8.40 | – | –
Cn1c(Nc2c(Cl)ccc(CNC(=O)C(C)(C)C)c2Cl)nc2cc(C(=O)Nc3c(F)ccc(F)c3F)c(OCC(F)F)cc21 [Example 85] | 8.40 | 9.00 | – | –
Cn1c(Nc2c(Cl)ccc(CNC(=O)C(C)(C)C)c2Cl)nc2cc(C(=O)N[C@H]3CC[C@H](C(F)(F)F)CC3)c(F)cc21 [Example 3, N-(trans-4-Trifluoromethyl-cyclohex-1-yl)-2-{2,6-dichloro-3-[(2,2-dimethyl-propionylamino)-methyl]-phenylamino}-6-fluoro-1-methyl-1H-benzimidazole-5-carboxylic acid amide] | 9.00 | 8.40 | – | –
Cn1c(Nc2c(Cl)ccc(CNC(=O)C(C)(C)C)c2Cl)nc2cc(C(=O)N[C@H]3CC[C@H](C(F)(F)F)CC3)c(OCC(F)F)cc21 [drawing 46] | – | – | > 9.00 | 8.70
Cn1c(Nc2c(Cl)ccc(CNC(=O)C(C)(C)C)c2Cl)nc2cc(C(=O)Nc3ccc(F)c(F)c3)c(OCC(F)F)cc21 [Example 74] | 9.00 | 8.05 | – | –
CC(C)(C)C(=O)NCc1ccc(Cl)c(Nc2nc3cc(C(=O)N[C@H]4CC[C@H](C(F)(F)F)CC4)c(OCC(F)F)cc3[nH]2)c1Cl [Example 2, N-(trans-4-Trifluoromethyl-cyclohex-1-yl)-2-{2,6-dichloro-3-[(2,2-dimethyl-propionylamino)-methyl]-phenylamino}-6-(2,2-difluoro-ethoxy)-1H-benzimidazole-5-carboxylic acid amide] | 8.52 | 8.70 | – | –
